Experimental data: the NIST ThermoML archive (doi:10.1021/je301164d)
± gives the expanded uncertainty stated by the source.

Conditions: Fluid (supercritical or subcritical phases)

CC(F)(F)CC(F)(F)F [1,1,1,3,3-pentafluorobutane]
Conditions	speed of sound [m/s]
320 K, 60148 kPa	963.25 ± 0.43
320 K, 70155 kPa	1000.1 ± 0.45
320 K, 80162 kPa	1034.6 ± 0.47
320 K, 90169 kPa	1067.1 ± 0.48
320 K, 100176 kPa	1098 ± 0.5
320.01 K, 1103.1 kPa	652.28 ± 0.3
340 K, 1105.8 kPa	578.15 ± 0.27
340 K, 2106.4 kPa	587.65 ± 0.28
340 K, 3107 kPa	596.83 ± 0.28
340 K, 4107.5 kPa	605.73 ± 0.28
340 K, 5108.1 kPa	614.36 ± 0.29
340 K, 6109.1 kPa	622.75 ± 0.29
340 K, 7109.7 kPa	630.92 ± 0.29
340 K, 8108.9 kPa	638.86 ± 0.3
340 K, 9109.4 kPa	646.62 ± 0.3
340 K, 10110 kPa	654.2 ± 0.3
340 K, 12611 kPa	672.43 ± 0.31
340 K, 15113 kPa	689.74 ± 0.32
340 K, 17614 kPa	706.24 ± 0.32
340 K, 20116 kPa	722.03 ± 0.33
340 K, 25119 kPa	751.78 ± 0.34
340 K, 30122 kPa	779.47 ± 0.35
340 K, 35124 kPa	805.42 ± 0.37
340 K, 40128 kPa	829.93 ± 0.38
340 K, 45131 kPa	853.19 ± 0.39
340 K, 50135 kPa	875.34 ± 0.4
340 K, 60142 kPa	916.86 ± 0.42
340 K, 70150 kPa	955.26 ± 0.43
340 K, 80157 kPa	991.12 ± 0.45
340 K, 90164 kPa	1024.8 ± 0.47
340 K, 100171 kPa	1056.7 ± 0.48
360 K, 1102.1 kPa	503.74 ± 0.24
360 K, 2102.7 kPa	515.2 ± 0.25
360 K, 3103.3 kPa	526.14 ± 0.25
360 K, 4104 kPa	536.64 ± 0.26
360 K, 5104.8 kPa	546.73 ± 0.26
360 K, 6106.2 kPa	556.45 ± 0.26
360 K, 7106.9 kPa	565.84 ± 0.27
360 K, 8107.7 kPa	574.94 ± 0.27
360 K, 9108.4 kPa	583.75 ± 0.27
360 K, 10109 kPa	592.32 ± 0.28
360 K, 12611 kPa	612.74 ± 0.29
360 K, 15113 kPa	631.92 ± 0.29
360 K, 17615 kPa	650.07 ± 0.3
360 K, 20117 kPa	667.31 ± 0.31
360 K, 25120 kPa	699.5 ± 0.32
360 K, 30124 kPa	729.19 ± 0.34
360 K, 35127 kPa	756.83 ± 0.35
360 K, 40130 kPa	782.78 ± 0.36
360 K, 45134 kPa	807.28 ± 0.37
360 K, 50137 kPa	830.52 ± 0.38
360 K, 60144 kPa	873.89 ± 0.4
360 K, 70151 kPa	913.8 ± 0.42
360 K, 80158 kPa	950.91 ± 0.43
360 K, 90165 kPa	985.68 ± 0.45
360 K, 100172 kPa	1018.5 ± 0.47
379.99 K, 1100.8 kPa	427.28 ± 0.21
379.99 K, 2101.7 kPa	441.66 ± 0.22
379.99 K, 3102.1 kPa	455.12 ± 0.22
379.99 K, 4102.7 kPa	467.8 ± 0.23
379.99 K, 5103.4 kPa	479.82 ± 0.23
379.99 K, 6104.7 kPa	491.27 ± 0.24
379.99 K, 7105.5 kPa	502.21 ± 0.24
379.99 K, 8106.3 kPa	512.71 ± 0.25
379.99 K, 9107.5 kPa	522.81 ± 0.25
379.99 K, 10108 kPa	532.54 ± 0.26
379.99 K, 12610 kPa	555.5 ± 0.26
379.99 K, 15112 kPa	576.81 ± 0.27
379.99 K, 17614 kPa	596.76 ± 0.28
379.99 K, 20116 kPa	615.56 ± 0.29
379.99 K, 25119 kPa	650.34 ± 0.3
379.99 K, 30123 kPa	682.08 ± 0.32
379.99 K, 35126 kPa	711.42 ± 0.33
379.99 K, 40130 kPa	738.79 ± 0.34
379.99 K, 45134 kPa	764.51 ± 0.35
379.99 K, 50137 kPa	788.83 ± 0.36
379.99 K, 60144 kPa	833.97 ± 0.38
379.99 K, 70151 kPa	875.31 ± 0.4
379.99 K, 80158 kPa	913.6 ± 0.42
379.99 K, 90166 kPa	949.39 ± 0.43
379.99 K, 100173 kPa	983.05 ± 0.45
400 K, 1605.2 kPa	355.52 ± 0.19
400 K, 2105.7 kPa	364.94 ± 0.19
400 K, 3106.4 kPa	382.38 ± 0.2
400 K, 4107.2 kPa	398.31 ± 0.2
400 K, 5108.1 kPa	413.05 ± 0.21
400 K, 6107.8 kPa	426.8 ± 0.21
400 K, 7108.6 kPa	439.76 ± 0.22
400 K, 8109.4 kPa	452.03 ± 0.22
400 K, 9110.2 kPa	463.7 ± 0.23
400 K, 10111 kPa	474.85 ± 0.23
400 K, 12613 kPa	500.78 ± 0.24
400 K, 15114 kPa	524.48 ± 0.25
400 K, 17616 kPa	546.39 ± 0.26
400 K, 20118 kPa	566.86 ± 0.27
400 K, 25122 kPa	604.31 ± 0.28
400 K, 30125 kPa	638.14 ± 0.3
400 K, 35128 kPa	669.16 ± 0.31
400 K, 40132 kPa	697.92 ± 0.32
400 K, 45135 kPa	724.83 ± 0.34
400 K, 50138 kPa	750.16 ± 0.35
400 K, 60145 kPa	796.98 ± 0.37
400 K, 70152 kPa	839.66 ± 0.39
400 K, 80159 kPa	879.05 ± 0.4
400 K, 90166 kPa	915.76 ± 0.42
400 K, 100174 kPa	950.23 ± 0.44
419.99 K, 2103.3 kPa	280.02 ± 0.16
419.99 K, 3102.8 kPa	305.08 ± 0.17
419.99 K, 4103.6 kPa	326.49 ± 0.18
419.99 K, 5104.3 kPa	345.41 ± 0.18
419.99 K, 6105 kPa	362.51 ± 0.19
419.99 K, 7105.6 kPa	378.2 ± 0.2
419.99 K, 8106.4 kPa	392.76 ± 0.2
419.99 K, 9107.1 kPa	406.4 ± 0.21
419.99 K, 10108 kPa	419.26 ± 0.21
